# In patent publication US20160318933A1, “FUSED PYRAZOLE DERIVATIVE” (SUMITOMO DAINIPPON PHARMA CO., LTD., priority 2013, published 2016):
# Target: T1, human brain-derived dopamine D4 receptor (Homo sapiens, UniProt P21917)
# T1 construct: expressed in transfected cells; host or cells: CHO (CHO-K1) or HEK293 cells
# T1 sequence (P21917 1-419): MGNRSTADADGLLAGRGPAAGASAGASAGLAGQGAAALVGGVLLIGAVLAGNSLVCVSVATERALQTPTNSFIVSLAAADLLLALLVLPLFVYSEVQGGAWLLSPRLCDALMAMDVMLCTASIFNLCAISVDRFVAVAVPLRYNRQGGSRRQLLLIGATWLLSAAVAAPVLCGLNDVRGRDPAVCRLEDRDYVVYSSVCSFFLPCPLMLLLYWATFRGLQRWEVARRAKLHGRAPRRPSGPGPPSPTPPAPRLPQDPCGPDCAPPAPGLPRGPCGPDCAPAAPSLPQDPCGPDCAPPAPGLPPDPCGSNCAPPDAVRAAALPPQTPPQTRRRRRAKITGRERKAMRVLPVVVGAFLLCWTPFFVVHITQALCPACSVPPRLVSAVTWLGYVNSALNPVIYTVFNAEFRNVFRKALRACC
# Assay: Agonistic activity in G protein dependent pathway of dopamine D4 receptor (aequorin intracellular calcium luminescence, FDSS)
# Assay type: cell-based
# Conditions: for EC50: concentration required to achieve a 50% response of Emax, CHO-K1 or HEK293 cells transfected with D4 receptor; for Emax: read-out: Maximal activity on D4 receptor (%)
# Excerpt: The G protein dependent pathway is a pathway for transmitting signals in cells via a second messenger by stimulating a G protein through the binding of guanosine triphosphate (GTP) to the G protein. When GPCRs are activated by the binding of a ligand, a G protein binds to the GPCRs, and thereby GTP binds to a Gα subunit that is one of G protein subunits and a Gγβ subunit is dissociated. The activated Gα subunit regulates intracellular cAMP levels by the activation or inhibition of an adenylate cyclase, and regulates intracellular calcium levels by the activation of phospholipase C to transmit signals in cells.
# The agonistic activities of the present compounds in the G protein dependent pathway were evaluated on the basis of intracellular calcium levels as follows. CHO-K1 or HEK293 cell lines transfected with D4 receptor genes were seeded in a 384-well plate, and incubated in a CO2 incubator at 37° C. for 24 hours, and then a solution of the present compound in DMSO was added into cells preloaded with coelenterazine to measure the change in luminescent signals with a FDSS (Hamamatsu Photonics K.K.). […] The agonistic activity of the present compound was calculated according to the measured luminescent signals, as the maximal activity (Emax) of the present compound. EC50 value was calculated as the concentration of the present compound required to achieve a 50% response of Emax.
SMILES,EC50 [nM],Emax [%]
Cc1cccnc1-c1nn2c(c1C)CN(Cc1ccc(C(F)(F)F)cn1)CC2 [Example 118],106,59
Cc1ncc(CN2CCn3nc(-c4ccccn4)c(C)c3C2)c(N)n1 [Example 142],68,82
O=C1NCc2cc(CN3CCn4nc(-c5ccccn5)cc4C3)ccc21 [Example 51],70,32
FC(F)(F)c1c(-c2ccccn2)nn2c1CN(Cc1ccccc1)CC2 [Example 175],92,50
Cc1cccnc1-c1cc2n(n1)CCN(Cc1cc3c(cn1)OCCC3)C2 [Example 136],63,52
Cc1cccnc1-c1nn2c(c1C)CN(Cc1ccc(C(F)(F)F)nc1)CC2 [Example 117],241,51
COc1ccccc1-c1cc2n(n1)CCN(Cc1ccc(F)c(C#N)c1)C2 [Example 18],60,83
"Cc1cccnc1-c1cc2n(n1)CCN(Cc1cnc(C)c(Cl)c1)C2 [Example 189, 5-[(5-Chloro-6-methylpyridin-3-yl)methyl]-2-(3-methylpyridin-2-yl)-4,5,6,7-tetrahydropyrazolo[1,5-a]pyrazine]",57,49
Cc1cccnc1-c1cc2n(n1)CCN(Cc1cnc(C(F)(F)F)nc1)C2 [Example 195],84,35
Cc1cccnc1-c1cc2n(n1)CCN(Cc1ncc(Br)cc1F)C2 [Example 183],108,49
Fc1cccnc1-c1cc2n(n1)CCN(Cc1cnc(C(F)F)nc1)C2 [Example 199],101,36
Nc1ncc(CN2CCn3nc(-c4ncccc4F)cc3C2)cn1 [Example 151],103,69
Cc1n[nH]c2ccc(CN3CCn4nc(-c5ccccn5)cc4C3)cc12 [Example 37],62,54
Cc1ccccc1CN1CCn2nc(-c3ccccn3)cc2C1 [Example 26],61,49
Cc1cccnc1-c1cc2n(n1)CCN(Cc1cc3ccccc3n1C)C2 [Example 146],90,48
"Cc1cccnc1-c1cc2n(n1)CCN(Cc1cnc(C(F)(F)F)nc1N)C2 [Example 84, 5-{[2-(3-Methylpyridin-2-yl)-6,7-dihydropyrazolo[1,5-a]pyrazin-5(4H)-yl]methyl}-2-(trifluoromethyl)pyrimidine-4-amine]",118,68
"Fc1c(-c2ccccn2)nn2c1CN(Cc1ccccc1)CCC2 [Example 33, 5-Benzyl-3-fluoro-2-(pyridin-2-yl)-5,6,7,8-tetrahydro-4H-pyrazolo[1,5-a][1,4]diazepine]",63,41
"Cc1cccnc1-c1cc2n(n1)CCN(Cc1ccc(C(F)(F)F)nc1)C2 [Example 143, 2-(3-Methylpyridin-2-yl)-5-{[6-(trifluoromethyl)pyridin-3-yl]methyl}-4,5,6,7-tetrahydropyrazolo[1,5-a]pyrazine]",80,48
"Cc1ccc(CN2CCn3nc(-c4ncccc4C)c(Cl)c3C2)nc1 [Example 106, 3-Chloro-2-(3-methylpyridin-2-yl)-5-[(5-methylpyridin-2-yl)methyl]-4,5,6,7-tetrahydropyrazolo[1,5-a]pyrazine]",66,94
Cc1cccnc1-c1cc2n(n1)CCN(Cc1ccc(C(F)(F)F)cc1)C2 [Example 55],67,92
Cc1ccc2c(CN3CCn4nc(-c5ncccc5C)cc4C3)n[nH]c2c1 [Example 101],78,67
Cc1cccnc1-c1cc2n(n1)CCN(Cc1cnn3c1CCCC3)C2 [Example 88],93,54
Cc1cccnc1-c1cc2n(n1)CCN(Cc1c3ccccc3nn1C)C2 [Example 149],107,53
Cc1cccnc1-c1cc2n(n1)CCN(Cc1n[nH]c3cccc(C)c13)C2 [Example 45],157,54
"Cc1ncc(CN2CCn3nc(-c4ccccn4)c(Cl)c3C2)c(N)n1 [Example 172, 5-{[3-Chloro-2-(pyridin-2-yl)-6,7-dihydropyrazolo[1,5-a]pyrazin-5 (4H)-yl]methyl}-2-methylpyrimidine-4-amine]",90,53
Fc1cccnc1-c1cc2n(n1)CCN(Cc1ccc(C(F)(F)F)cc1)C2 [Example 68],69,64
Cc1c(-c2ccccn2)nn2c1CN(Cc1ccc(C(F)(F)F)nc1N)CC2 [Example 92],60,64

# Next, values leading:
EC50 [nM],Emax [%],SMILES
45,59,Cc1ncc(CN2CCn3nc(-c4ncccc4F)cc3C2)c(N)n1 [Example 46]
56,89,Cc1c(-c2ncccc2F)nn2c1CN(Cc1ccc(C(F)(F)F)nc1)CC2 [Example 127]
38,63,Cc1cccnc1-c1cc2n(n1)CCN(Cc1ccc(CF)c(C)n1)C2 [Example 180]
20,79,Cc1cccnc1-c1cc2n(n1)CCN(Cc1n[nH]c3cc(F)ccc13)C2 [Example 100]
18,99,Cc1ccc(CN2CCn3nc(-c4ccccn4)c(C)c3C2)nc1 [Example 110]
25,89,Cc1cccnc1-c1cc2n(n1)CCN(Cc1cccc(C#N)c1)C2 [Example 62]
11,91,Cc1cccc(CN2CCn3nc(-c4ncccc4F)c(C)c3C2)n1 [Example 126]
50,47,Cc1cccnc1-c1cc2n(n1)CCN(Cc1ccc(CF)nc1)C2 [Example 122]
7,80,Cc1cccc(CN2CCn3nc(-c4ncccc4C)cc3C2)c1 [Example 54]
40,77,N#Cc1cc(CN2CCn3nc(-c4ccccn4)cc3C2)ccc1F [Example 36]
23,56,Cc1ccnc(CN2CCn3nc(-c4ccccn4)c(C)c3C2)c1 [Example 93]
55,70,Cc1cccc(CN2CCn3nc(-c4ncccc4C)cc3C2)n1 [Example 156]
17,69,Cn1nc(CN2CCn3nc(-c4ncccc4F)cc3C2)c2ccccc21 [Example 167]
20,69,Cc1cccnc1-c1cc2n(n1)CCN(Cc1ccc([N+](=O)[O-])cc1)C2 [Example 65]
47,59,Nc1nc(C(F)(F)F)ccc1CN1CCn2nc(-c3ccccn3)cc2C1 [Example 21]
49,44,Cc1cccnc1-c1cc2n(n1)CCN(Cc1cc3n(n1)CCCC3)C2 [Example 91]
12,78,Cc1cccnc1-c1cc2n(n1)CCN(Cc1ccc(Cl)cc1)C2 [Example 56]
13,61,Cc1ccc(CN2CCn3nc(-c4ncccc4C)cc3C2)nc1 [Example 107]
32,66,Cc1cc(CN2CCn3nc(-c4ncccc4C)cc3C2)cnc1Cl [Example 187]
38,71,Cn1c(CN2CCn3nc(-c4ncccc4F)cc3C2)cc2ccccc21 [Example 150]
4.3,87,Cc1cccnc1-c1cc2n(n1)CCN(Cc1n[nH]c3ccccc13)C2 [Example 35]
51,80,Fc1ccc(CN2CCn3nc(-c4ncccc4F)cc3C2)cn1 [Example 169]
47,39,Cc1cccnc1-c1cc2n(n1)CCN(Cc1cnn3ccccc13)C2 [Example 89]
12,63,"Clc1c(-c2ccccn2)nn2c1CN(Cc1ccccc1)CC2 [Example 173, 5-Benzyl-3-chloro-2-(pyridin-2-yl)-4,5,6,7-tetrahydropyrazolo[1,5-a]pyrazine]"
0.7,89,Cc1c(-c2ccccn2)nn2c1CN(Cc1ccccc1)CC2 [Example 81]
47,76,Cc1c(-c2ncccc2F)nn2c1CN(Cc1ccc3c(n1)CCCC3)CC2 [Example 124]
51,42,O=C1CCc2ccc(CN3CCn4nc(-c5ccccn5)cc4C3)cc2N1 [Example 20]
29,55,Cc1cccnc1-c1cc2n(n1)CCN(Cc1cc3ccccn3n1)C2 [Example 90]
41,66,Cc1cccnc1-c1cc2n(n1)CCN(Cc1ccc3c(n1)CCCC3)C2 [Example 112]
